Like-named read-outs stand apart in the source and are kept apart here.
Target: T1, androgen receptor (AR) (Homo sapiens, UniProt P10275)
T1 sequence (P10275 1-920): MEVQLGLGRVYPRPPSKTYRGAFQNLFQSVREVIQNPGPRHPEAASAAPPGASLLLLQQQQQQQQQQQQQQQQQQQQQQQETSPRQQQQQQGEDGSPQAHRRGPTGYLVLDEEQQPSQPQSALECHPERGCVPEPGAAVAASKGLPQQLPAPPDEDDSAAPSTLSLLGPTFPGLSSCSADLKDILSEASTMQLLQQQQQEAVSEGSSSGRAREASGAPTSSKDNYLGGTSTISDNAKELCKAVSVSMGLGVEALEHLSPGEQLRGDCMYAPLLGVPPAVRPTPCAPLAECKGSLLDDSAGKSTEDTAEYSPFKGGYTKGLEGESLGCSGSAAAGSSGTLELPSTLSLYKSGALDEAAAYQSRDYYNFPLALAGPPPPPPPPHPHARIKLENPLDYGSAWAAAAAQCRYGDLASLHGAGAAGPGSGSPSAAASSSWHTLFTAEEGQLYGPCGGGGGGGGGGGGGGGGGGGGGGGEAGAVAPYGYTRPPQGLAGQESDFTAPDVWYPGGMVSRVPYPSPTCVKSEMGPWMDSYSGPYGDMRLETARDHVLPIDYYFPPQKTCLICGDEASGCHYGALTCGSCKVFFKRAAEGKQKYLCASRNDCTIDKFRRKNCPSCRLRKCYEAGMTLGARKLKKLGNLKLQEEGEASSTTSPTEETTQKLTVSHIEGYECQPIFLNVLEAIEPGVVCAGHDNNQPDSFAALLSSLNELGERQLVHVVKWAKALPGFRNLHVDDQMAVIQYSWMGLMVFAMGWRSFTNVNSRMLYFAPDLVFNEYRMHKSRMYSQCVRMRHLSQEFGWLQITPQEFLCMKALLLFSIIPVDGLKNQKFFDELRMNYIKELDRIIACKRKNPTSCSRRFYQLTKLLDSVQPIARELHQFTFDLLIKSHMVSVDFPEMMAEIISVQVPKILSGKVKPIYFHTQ
Assay: Degradation of androgen receptor (AR) protein in VCaP cells by ELISA
Format: cell-based
Conditions: for Dmax: VCaP

[1] = AR degradation, VCaP cells, 16 h, ELISA, Table 3-1, read-out: DC50
[2] = AR degradation, VCaP cells, 16 h, ELISA, Table 3-1, read-out: Dmax (%)
[3] = AR degradation, VCaP cells, 16 h, ELISA, Table 3-2, read-out: DC50
[4] = AR degradation, VCaP cells, 16 h, ELISA, Table 3-2, read-out: Dmax (%)
[5] = AR degradation, VCaP cells, 16 h, ELISA, Table 3-1

Row | Compound | DC50 [1] [nM] | Dmax [2] [%] | other results
1 | C[C@@H]1CN(C[C@@H]2[C@H]3CN(c4cc5c(cc4F)C(=O)N(C4CCC(=O)NC4=O)C5=O)C[C@@H]23)CCN1c1cnc(C(=O)N[C@H]2CC[C@H](Oc3ccc(C#N)c(Cl)c3)CC2)cn1 (stereo partly drawn) [Compound 264, N-((1r,4R)-4-(3-chloro-4-cyanophenoxy)cyclohexyl)-5-((2R)-4-((1R,5S,6s)-3-(2-(2,6-dioxopiperidin-3-yl)-6-fluoro-1,3-dioxoisoindolin-5-yl)-3-azabicyclo[3.1.0]n-hexane-6-yl)methyl-2-methylpiperazin-1-yl)pyrazine-2-carboxamide] | 10 to 100 | 60 to 80 | 
2 | CC1(C)[C@H](Oc2ccc(C#N)c(Br)c2)C(C)(C)[C@H]1N1Cc2nc(C#C[C@H]3CC[C@H](N4CCN(c5ccc6c(c5)C(=O)N(C5CCC(=O)NC5=O)C6=O)CC4)CC3)ccc2C1=O (stereo partly shown) [Compound 398] |  |  | DC50 [3]: 10 to 100 nM; Dmax [4]: > 80%
3 | CC1(C)[C@H](Oc2ccc(C#N)c(Cl)c2)C(C)(C)[C@H]1N1Cc2nc(C#CC3CCC(N4CCC5(CCN(c6cc7c(cc6F)C(=O)N(C6CCC(=O)NC6=O)C7=O)C5)C4)CC3)ccc2C1=O (stereo partly shown) [Compound 367, 2-Chloro-4-((1r,3r)-3-(2-((4-(7-(2-(2,6-dioxopiperidin-3-yl)-6-fluoro-1,3-dioxoisoindolin-5-yl)-2,7-diazaspiro[4.4]nonan-2-yl)cyclohexyl)ethynyl)-5-oxo-5,7-dihydro-6H-pyrrolo[3,4-b]pyridin-6-yl)-2,2,4,4-tetramethylcyclobutoxy) benzonitrile] | 100 to 300 |  | Dmax (%) [5]: ++ (60%-40%)
4 | CC1(C)[C@H](Oc2ccc(C#N)c(Cl)c2)C(C)(C)[C@H]1N1Cc2nc(C#CC3CCC(N4CC5CC4CN5c4cc5c(cc4F)C(=O)N(C4CCC(=O)NC4=O)C5=O)CC3)cnc2C1=O (stereo partly shown) [Compound 386] |  |  | DC50 [3]: > 300 nM; Dmax [4]: 40 to 60%
5 | CC1(C)[C@H](Oc2ccc(C#N)c(Cl)c2)C(C)(C)[C@H]1N1Cc2nc(C#CC3CCC(N4CC5(CN(c6ccc7c(c6)C(=O)N([C@@H]6CCC(=O)NC6=O)C7=O)C5)C4)CC3)ccc2C1=O (stereo partly shown) [Compound 351, 2-Chloro-4-((1r,3r)-3-(2-((4-(6-(2-(2,6-dioxopiperidin-3-yl)-1,3-dioxoisoindolin-5-yl)-2,6-diazaspiro[3.3]heptane-2-yl)cyclohexyl)ethynyl)-5-oxo-5,7-dihydro-6H-pyrrolo[3,4-b]pyridin-6-yl)-2,2,4,4-tetramethylcyclobutoxy) benzonitrile] |  |  | Dmax (%): ++++ (key: A: >80%; B: 79%-50%; C: 49%-25%; D: <25%); DC50 (read-out: DC50): < 10 nM
6 | N#Cc1ccc(O[C@H]2CC[C@H](NC(=O)c3ccc(N4CCC(CN5CC6(C5)CN(c5cc7c(cc5F)C(=O)N(C5CCC(=O)NC5=O)C7=O)C6)CC4)nn3)CC2)cc1Cl (stereo partly shown) [Compound 122, N-((1r,4r)-4-(3-chloro-4-cyanophenoxy)cyclohexyl)-6-(4-((6-(2-(2,6-dioxopiperidin-3-yl)-6-fluoro-1,3-dioxoisoindolin-5-yl)-2,6-diazaspiro[3.3]heptan-2-yl)methyl)piperidin-1-yl)pyridazine-3-amide] |  |  | DC50: < 10 nM; Dmax: > 80%
7 | CC1(C)[C@H](Oc2ccc(C#N)c(Cl)c2)C(C)(C)[C@H]1N1Cc2nc(C#CC3CCC(N4CC5CN(c6cc7c(cc6F)C(=O)N(C6CCC(=O)NC6=O)C7=O)CC5C4)CC3)ccc2C1=O (stereo partly shown) [Compound 340] | < 10 | > 80 | 
8 | N#Cc1ccc(O[C@H]2CC[C@H](NC(=O)c3cnc(N4CC5CC4CN5C[C@H]4[C@@H]5CN(c6cc7c(cc6F)C(=O)N(C6CCC(=O)NC6=O)C7=O)C[C@@H]54)cn3)CC2)cc1Cl (stereo partly shown) [Compound 238] | 10 to 100 | 40 to 60 | 
9 | N#Cc1ccc(O[C@H]2CC[C@H](NC(=O)c3cnn([C@H]4CC[C@H](CN5CCC6(CC5)CN(c5ccc7c(c5)C(=O)N(C5CCC(=O)NC5=O)C7=O)C6)CC4)c3)CC2)cc1Cl (stereo partly shown) [Compound 245] | 10 to 100 |  | Dmax: 60 to 80%
10 | N#Cc1ccc(OC2CCC(NC(=O)c3cnc(N4CCN(CC5[C@H]6CN(c7cc8c(cc7F)C(=O)N(C7CCC(=O)NC7=O)C8=O)C[C@@H]56)CC4)cn3)CC2)cc1C(F)(F)F (stereo partly shown) [Compound 94] |  |  | Dmax (%): +++ (key: ++++: >80%; +++: 80%-60%; ++: 60%-40%; +: <40%); DC50 (read-out: DC50): 10 to 100 nM
11 | CC1(C)[C@H](Oc2ccc(C#N)c(Cl)c2)C(C)(C)[C@H]1N1Cc2nc(C#C[C@H]3C[C@H](N4CCN(c5cnn(C6CCC(=O)NC6=O)c(=O)c5)CC4)C3)ccc2C1=O (stereo partly shown) [Compound 394] |  |  | DC50 [3]: 10 to 100 nM; Dmax [4]: 60 to 80%
12 | N#Cc1ccc(O[C@H]2CC[C@H](NC(=O)c3ccc(N4CCN(C5CC6(CCN(c7cc8c(cc7F)C(=O)N(C7CCC(=O)NC7=O)C8=O)CC6)C5)CC4)nn3)CC2)cc1Cl (stereo partly shown) [Compound 270, N-((1r,4r)-4-(3-chloro-4-cyanophenoxy)cyclohexyl)-6-(4-(7-(2-(2,6-dioxopiperidin-3-yl)-6-fluoro-13-dioxoisoindolin-5-yl) -7-azaspiro[3.5]nonan-2-yl)piperazin-1-yl)pyridazine-3-formamide] | < 10 | > 80 | 
13 | N#Cc1ccc(O[C@H]2CC[C@H](NC(=O)c3ncnn3[C@H]3CC[C@H](CN4CCC5(CC4)CN(c4cc6c(cc4F)C(=O)N(C4CCC(=O)NC4=O)C6=O)C5)CC3)CC2)cc1Cl (stereo partly shown) [Compound 87] | 100 to 300 | 40 to 60 | 
14 | CC1(C)[C@H](Oc2ccc(C#N)c(Br)c2)C(C)(C)[C@H]1N1Cc2nc(C#C[C@H]3CC[C@H](N4CCN(c5cc6c(cc5F)C(=O)N(C5CCC(=O)NC5=O)C6=O)CC4)CC3)ccc2C1=O (stereo partly shown) [Compound 397] |  |  | DC50 [3]: 10 to 100 nM; Dmax [4]: > 80%
15 | CC1(C)[C@H](Oc2ccc(C#N)c(Cl)c2)C(C)(C)[C@H]1N1Cc2nc(C#CC3CCC(N4CC5(CCN(c6ccc7c(c6)C(=O)N(C6CCC(=O)NC6=O)C7=O)C5)C4)CC3)ccc2C1=O (stereo partly shown) [Compound 368, 2-Chloro-4-((1r,3r)-3-(2-((4-(6-(2-(2,6-dioxopiperidin-3-yl)-1,3-dioxoisoindolin-5-yl)-2,6-diazaspiro[3.4]octane-2-yl)cyclohexyl)ethynyl)-5-oxo-5,7-dihydro-pyrrolo[3,4-b]pyridin-6-yl)-2,2,4,4-tetramethylcyclobutoxy) benzonitrile] | 100 to 300 | 40 to 60 | 
16 | N#Cc1ccc(OC2CCC(NC(=O)c3ccc(N4CCN(CC5[C@H]6CN(c7cc8c(cc7F)C(=O)N(C7CCC(=O)NC7=O)C8=O)C[C@@H]56)CC4)nn3)CC2)cc1C(F)(F)F (stereo partly shown) [Compound 95] |  |  | Dmax (%): +++ (key: ++++: >80%; +++: 80%-60%; ++: 60%-40%; +: <40%); DC50 (read-out: DC50): 10 to 100 nM
17 | N#Cc1ccc(O[C@H]2CC[C@H](NC(=O)c3cnc(N4CCC(CN5CCC6(CC5)CN(c5ccc7c(c5)C(=O)N(C5CCC(=O)NC5=O)C7=O)C6)CC4)nn3)CC2)cc1Cl (stereo partly shown) [Compound 279, N-((1r,4r)-4-(3-chloro-4-cyanophenoxy)cyclohexyl)-3-(4-((2-(2-(2,6-dioxopiperidin-3-yl)-1,3-dioxoisoindolin-5-yl)-2,7-diazaspiro[3.5]nonane-7-yl)methyl)piperidin-1-yl)-1,2,4-triazine-6-formamide] |  |  | DC50: < 10 nM; Dmax: > 80%
18 | N#Cc1ccc(O[C@H]2CC[C@H](NC(=O)c3cnc(N4CCC(CN5CCC6(CC5)CN(c5cc7c(cc5F)C(=O)N(C5CCC(=O)NC5=O)C7=O)C6)CC4)nc3)CC2)cc1Cl (stereo partly shown) [Compound 268] | < 10 | > 80 | 
19 | CC1(C)[C@H](Oc2ccc(C#N)c(Cl)c2)C(C)(C)[C@H]1N1Cc2nc(C#CC3CCC(N4CCC5(CN(c6cc7c(cc6F)C(=O)N(C6CCC(=O)NC6=O)C7=O)C5)C4)CC3)ccc2C1=O (stereo partly shown) [Compound 375] | < 10 |  | 
20 | CC1(C)[C@H](Oc2ccc(C#N)c(Cl)c2)C(C)(C)[C@H]1N1Cc2nc(C#CC3CCC(N4CC5CC4CN5c4cc5c(cc4F)C(=O)N(C4CCC(=O)NC4=O)C5=O)CC3)ccc2C1=O (stereo partly shown) [Compound 343] | > 300 | 40 to 60 | 
21 | CC1(C)[C@H](Oc2ccc(C#N)c(Cl)c2)C(C)(C)[C@H]1N1Cc2nc(C#CC3CCC(N4CCC5(CN(c6ccc7c(c6)C(=O)N(C6CCC(=O)NC6=O)C7=O)C5)C4)CC3)ccc2C1=O (stereo partly shown) [Compound 372] | > 300 | < 40 | 
22 | CC1(C)[C@H](Oc2ccc(C#N)c(Cl)c2)C(C)(C)[C@H]1N1Cc2nc(C#CC3CCC(N4CCC5(CCN(c6cc7c(cc6F)C(=O)N(C6CCC(=O)NC6=O)C7=O)C5)C4)CC3)ccc2C1=O (stereo partly shown) [Compound 366, 2-Chloro-4-((1r,3r)-3-(2-((4-(7-(2-(2,6-dioxopiperidin-3-yl)-6-fluoro-1,3-dioxoisoindolin-5-yl)-2,7-diazaspiro[4.4]nonan-2-yl)cyclohexyl)ethynyl)-5-oxo-5,7-dihydro-6H-pyrrolo[3,4-b]pyridin-6-yl)-2,2,4,4-tetramethylcyclobutoxy) benzonitrile] | < 10 |  | Dmax (%) [5]: ++++ (>80%)
